Test results taken from patent US11779566B2 (priority 2016, dated 2023).
≈ marks a conversion by molar mass, not a printed value.

Tests used:
vaccinia virus (VV) = conditions: in vitro, read-out: 50% effective concentration [EC50], inhibition of virus replication; cited from earlier work
ECTV = conditions: mouse, in vivo; cited from earlier work
physchem = conditions: aqueous buffer
camelpox = conditions: read-out: 50% effective concentration [EC50], inhibition of virus replication; cited from earlier work
CV = conditions: lethal infection with CV; treatments delayed up to 72 h post-viral inoculation; cited from earlier work
variola viruses = conditions: in vitro, read-out: 50% effective concentration [EC50], inhibition of virus replication; cited from earlier work
VV [1] = conditions: orally twice a day at 15 or 50 mg/kg of body weight for 5 days; cited from earlier work
VV [2] = conditions: lethal infection with VV; treatments delayed up to 72 h post-viral inoculation; cited from earlier work
monkeypox = conditions: in vitro, read-out: 50% effective concentration [EC50], inhibition of virus replication; cited from earlier work
ectromelia virus (ECTV) = conditions: read-out: 50% effective concentration [EC50], inhibition of virus replication; cited from earlier work
cowpox virus (CV) = conditions: in vitro, read-out: 50% effective concentration [EC50], inhibition of virus replication; cited from earlier work

For `O=C(NN1C(=O)[C@@H]2[C@@H]3C=C[C@@H]([C@H]4C[C@@H]34)[C@@H]2C1=O)c1ccc(C(F)(F)F)cc1` [ST-246, 4-trifluoromethyl-N-(3,3a,4,4a,5,5a,6,6a-octahydro-1,3-dioxo-4,6-ethenocycloprop[f]isoindol-2-(1H)-yl)-benzamide], the EC50 (vaccinia virus (VV)) is listed as at most 70 nM, the “preventing or reducing mortality” value (ECTV) is listed as “highly effective in preventing or reducing mortality” and the “toxicity in animal models” value (ECTV) is listed as “nontoxic”. For the same compound, the solubility (physchem) was about 2 µg/mL (≈ 5.31 µM), the EC50 (camelpox) was at most 70 nM and the “preventing or reducing mortality” value (CV) was “highly effective in preventing or reducing mortality”. The EC50 (variola viruses) was at most 70 nM, the tail lesions (VV [1]) was “significantly reduced” and the “preventing or reducing mortality” value (VV [2]) was “highly effective in preventing or reducing mortality”. The EC50 (monkeypox) was at most 70 nM, the EC50 (ectromelia virus (ECTV)) was at most 70 nM and the EC50 (cowpox virus (CV)) was at most 70 nM.
